{
  "source": "ChEMBL document CHEMBL6078680",
  "about": "“Improving the Stability and Anti-Infective Activity of Sea Turtle AMPs Using Multiple Structural Modification Strategies” (J Med Chem, 2024)",
  "key": {"[1]": {"tested_on": "Staphylococcus aureus", "test": "Antibacterial activity against Staphylococcus aureus CMCC 26003 assessed as increase in intracellular ROS production incubated for 1 hr by DCFH-DA staining based assay", "format": "functional, organism-based"}, "[2]": {"tested_on": "Acinetobacter baumannii", "test": "Antimicrobial activity against Acinetobacter baumannii ATCC19606 assessed as reduction in microbial growth incubated for 18 hrs by broth microdilution method", "format": "functional"}, "[3]": {"tested_on": "Acinetobacter baumannii", "test": "Antibiofilm activity against Acinetobacter baumannii ATCC 19606 assessed as inhibition of biofilm formation incubated for 48 hrs by crystal violet staining based analysis", "format": "functional, organism-based"}, "[4]": {"tested_on": "Escherichia coli", "test": "Antimicrobial activity against Escherichia coli ATCC 25922 measured at 8 hrs in presence of mouse serum", "format": "functional, organism-based"}, "[5]": {"tested_on": "Peritoneal macrophage", "test": "Antiinflammatory activity in mouse Peritoneal macrophage cells assessed as inhibition of LPS-induced TNF-alpha production at 20 microg/ml incubated for 6 hrs by ELISA analysis", "format": "functional, cell-based", "conditions": "dose 20.0 µg/ml"}, "[6]": {"tested_on": "Staphylococcus aureus", "test": "Antimicrobial activity against Staphylococcus aureus ATCC 43300 assessed as reduction in microbial growth incubated for 18 hrs by broth microdilution method", "format": "functional"}, "[7]": {"tested_on": "Cell membrane", "test": "Induction of outer membrane permeabilization in Escherichia coli ATCC 25922 at 5 times MIC measured for 1 hr by NPN-dye based fluorescence analysis", "format": "subcellular"}, "[8]": {"tested_on": "Acinetobacter baumannii", "test": "Antipersister-activity against Acinetobacter baumannii ATCC 19606 assessed as elimination of persister cells at 8 times MIC preincubated adherent persistent cells with colistin incubation for 24 hrs", "format": "functional"}, "[9]": {"tested_on": "Escherichia coli", "test": "Antimicrobial activity against Escherichia coli ATCC 25922 assessed as reduction in microbial growth incubated for 18 hrs by broth microdilution method", "format": "functional"}, "[10]": {"tested_on": "Acinetobacter baumannii", "test": "In vivo antibacterial activity against Acinetobacter baumannii ATCC19606 infected in BALB/c mouse assessed as reduction in bacterial load in liver at 15 mg/kg, ip measured after 12 hrs", "format": "functional, organism-based"}, "[11]": {"tested_on": "Acinetobacter baumannii", "test": "Antibiofilm activity against Acinetobacter baumannii ATCC 19606 assessed as inhibition of biofilm formation at 4 to 8 times MIC incubated for 48 hrs by crystal violet staining based analysis", "format": "functional"}, "[12]": {"tested_on": "Acinetobacter baumannii", "test": "In vivo antibacterial activity against Acinetobacter baumannii ATCC19606 infected in BALB/c mouse assessed as reduction in bacterial load in kidney at 15 mg/kg, ip measured after 12 hrs", "format": "functional, organism-based"}, "[13]": {"biological_target": "Trypsin (Homo sapiens, UniProt P07477+P07478+P35030)", "test": "Stability of compound assessed as trypsin (unknown origin) mediated drug degradation […] measured at 24 hrs by RP-HPLC analysis", "format": "ADME, protein assay", "conditions": "read-out: Activity"}, "[14]": {"tested_on": "Escherichia coli", "test": "Antibacterial activity against Escherichia coli ATCC 25922 at 1 times MIC in presence of 25 microg/ml exogenous DNA", "format": "functional, organism-based"}, "[15]": {"tested_on": "Acinetobacter baumannii", "test": "In vivo antibacterial activity against Acinetobacter baumannii ATCC19606 infected in BALB/c mouse assessed as reduction in bacterial load in kidney at 15 mg/kg, ip measured after 3 hrs", "format": "functional, organism-based"}, "[16]": {"test": "Acute toxicity in BALB/c mouse assessed as mortality at 20 mg/kg, iv measured for 24 hrs", "format": "organism-based", "conditions": "in vivo, read-out: Activity"}, "[17]": {"tested_on": "Staphylococcus aureus", "test": "Antimicrobial activity against Staphylococcus aureus CMCC 26003 assessed as bacterial eradication at 5 times MIC measured within 120 mins", "format": "functional, organism-based"}, "[18]": {"tested_on": "Escherichia coli", "test": "Antibacterial activity against Escherichia coli ATCC 25922 assessed as increase in intracellular ROS production at 1 times MIC by DCFH-DA staining based assay", "format": "functional, organism-based"}, "[19]": {"tested_on": "Staphylococcus aureus", "test": "Antibiofilm activity against Staphylococcus aureus CMCC 26003 assessed as reduction in biofilm formation at 0.5 to 8 times MIC incubated for 24 hrs by crystal violet staining based analysis", "format": "functional", "set-up": "scale not given: the % may be the effect or the level left"}, "[20]": {"tested_on": "Escherichia coli", "test": "Antimicrobial activity against Escherichia coli ATCC 25922 assessed as fold increase in MIC incubated for 18 hrs in presence of cardiolipin", "format": "functional"}, "[21]": {"tested_on": "Cell membrane", "test": "Induction of cell membrane permeabilization in Escherichia coli ATCC 25922 by propidium iodide dye-based fluorescence assay", "format": "subcellular"}, "[22]": {"tested_on": "Escherichia coli", "test": "Antimicrobial activity against Escherichia coli ATCC 25922 assessed as fold increase in MIC incubated for 18 hrs in presence of phosphatidylglycerol", "format": "functional"}, "[23]": {"tested_on": "RAW264.7", "test": "Cytotoxicity against mouse RAW264.7 cells upto 200 microg/ml by MTT assay", "format": "toxicity, cell-based", "conditions": "dose < 200 µg/ml"}, "[24]": {"tested_on": "Cell membrane", "test": "Induction of cell membrane permeabilization in Escherichia coli ATCC 25922 at 2 times MIC measured for 1 hr by propidium iodide dye-based fluorescence assay", "format": "subcellular"}, "[25]": {"tested_on": "Escherichia coli", "test": "Antimicrobial activity against Escherichia coli ATCC 25922 assessed as bacterial eradication at 5 times MIC measured within 30 mins", "format": "functional, organism-based"}, "[26]": {"tested_on": "Escherichia coli", "test": "Antimicrobial activity against Escherichia coli ATCC 25922 assessed as fold increase in MIC measured at 8 hrs in presence of mouse serum", "format": "functional"}, "[27]": {"tested_on": "Staphylococcus aureus", "test": "Antimicrobial activity against Staphylococcus aureus CMCC 26003 incubated for 18 hrs in presence of CCCP", "format": "functional, organism-based"}, "[28]": {"tested_on": "Escherichia coli", "test": "Antimicrobial activity against Escherichia coli ATCC 25922 incubated for 18 hrs in presence of CCCP", "format": "functional, organism-based"}, "[29]": {"tested_on": "Acinetobacter baumannii", "test": "Antimicrobial activity against Acinetobacter baumannii ATCC 19606 assessed as fold increase in MIC incubated for 18 hrs in presence of cardiolipin", "format": "functional"}, "[30]": {"tested_on": "Staphylococcus aureus", "test": "Antimicrobial activity against Staphylococcus aureus CMCC 26003 assessed as fold increase in MIC measured at 8 hrs in presence of mouse serum", "format": "functional"}, "[31]": {"tested_on": "Escherichia coli", "test": "Bactericidal activity against Escherichia coli ATCC 25922 at 5 times MIC measured within 120 mins", "format": "functional, organism-based"}, "[32]": {"tested_on": "Acinetobacter baumannii", "test": "Antimicrobial activity against Acinetobacter baumannii ATCC 19606 assessed as fold increase in MIC incubated for 18 hrs in presence of phosphatidylglycerol", "format": "functional"}},
  "note": "Activity calls are given as the source filed them. The calls are words filed in the database; no cut-off is given here.",
  "data": [
    {"smiles": "CC[C@H](C)[C@H](NC(=O)[C@@H](CCCNC(=N)N)NC(=O)[C@H](CO)NC(=O)[C@H](Cc1c[nH]cn1)NC(=O)[C@@H](CCCNC(=N)N)NC(=O)[C@H](CC(C)C)NC(=O)[C@@H](NC(=O)[C@@H](CCCNC(=N)N)NC(=O)CNC(=O)[C@H](CC(C)C)NC(=O)[C@H](CCC(N)=O)NC(=O)[C@@H](CCCCN)NC(=O)[C@@H](CCCNC(=N)N)NC(=O)[C@@H](NC(=O)[C@@H](CCCCN)NC(=O)[C@@H](CCCCN)NC(=O)[C@@H](N)Cc1ccccc1)C(C)C)C(C)C)C(=O)N[C@H](C(=O)N[C@H](C(=O)NCC(=O)NCC(=O)N[C@H](CCCNC(=N)N)C(=O)N[C@@H](CCSC)C(=O)N[C@H](CCCNC(=N)N)C(=O)N[C@@H](Cc1ccccc1)C(=O)O)C(C)C)[C@@H](C)O", "values": [
      {"measurement": "Activity", "setting": "[1]", "value": "Dose-dependent-effect"},
      {"measurement": "MIC", "setting": "[2]", "value": 18.8, "unit": "µg/mL"},
      {"measurement": "Activity", "setting": "[3]", "value": "Active"},
      {"measurement": "Activity", "setting": "[4]", "value": "inactive"},
      {"measurement": "Activity", "setting": "[5]", "value": "Active"},
      {"measurement": "MIC", "setting": "[6]", "value": "> 100", "unit": "µg/mL"},
      {"measurement": "Activity", "setting": "[7]", "value": 100, "unit": "%"},
      {"measurement": "Activity", "setting": "[8]", "value": 97.1, "unit": "%"},
      {"measurement": "MIC", "setting": "[9]", "value": 18.8, "unit": "µg/mL"},
      {"measurement": "Activity", "setting": "[10]", "value": "Active"},
      {"measurement": "inhibition (INH)", "setting": "[11]", "value": 80, "unit": "%"},
      {"measurement": "Activity", "setting": "[12]", "value": "Active"},
      {"measurement": "metabolised at 24 h", "setting": "[13]", "value": "< 60", "unit": "%"},
      {"measurement": "Activity", "setting": "[14]", "value": "inactive"},
      {"measurement": "Activity", "setting": "[15]", "value": "Active"},
      {"measurement": "mortality at 24 h", "setting": "[16]", "value": 33, "unit": "%"}
    ]},
    {"smiles": "CC[C@H](C)[C@H](NC(=O)[C@H](CCCNC(=N)N)NC(=O)[C@H](CO)NC(=O)[C@H](Cc1c[nH]cn1)NC(=O)[C@H](CCCNC(=N)N)NC(=O)[C@H](CC(C)C)NC(=O)[C@@H](NC(=O)[C@H](CCCNC(=N)N)NC(=O)CNC(=O)[C@H](CC(C)C)NC(=O)[C@H](CCC(N)=O)NC(=O)[C@H](CCCCN)NC(=O)[C@H](CCCNC(=N)N)NC(=O)[C@@H](NC(=O)[C@H](CCCCN)NC(=O)[C@H](CCCCN)NC(=O)[C@@H](N)Cc1ccccc1)C(C)C)C(C)C)C(=O)N[C@H](C(=O)N[C@H](C(=O)NCC(=O)NCC(=O)N[C@@H](CCCNC(=N)N)C(=O)N[C@@H](CCSC)C(=O)N[C@@H](CCCNC(=N)N)C(=O)N[C@@H](Cc1ccccc1)C(=O)O)C(C)C)[C@@H](C)O", "values": [
      {"measurement": "Activity", "setting": "[17]", "value": "Active"},
      {"measurement": "Activity", "setting": "[18]", "value": "Active"},
      {"measurement": "Activity", "setting": "[19]", "value": 40, "unit": "%"},
      {"measurement": "fold change (FC)", "setting": "[20]", "value": 8},
      {"measurement": "Activity", "setting": "[1]", "value": "Dose-dependent-effect"},
      {"measurement": "Activity", "setting": "[21]", "value": "Dose-dependent-effect"},
      {"measurement": "MIC", "setting": "[2]", "value": 4.69, "unit": "µg/mL"},
      {"measurement": "Activity", "setting": "[3]", "value": "Active"},
      {"measurement": "fold change (FC)", "setting": "[22]", "value": 16},
      {"measurement": "Activity", "setting": "[5]", "value": "Active"},
      {"measurement": "Activity", "setting": "[23]", "value": "Non-toxic"},
      {"measurement": "Activity", "setting": "[24]", "value": "> 90", "unit": "%"},
      {"measurement": "Activity", "setting": "[25]", "value": "Active"},
      {"measurement": "fold change (FC)", "setting": "[26]", "value": 8},
      {"measurement": "Activity", "setting": "[27]", "value": "Dose-dependent-effect"},
      {"measurement": "Activity", "setting": "[28]", "value": "Dose-dependent-effect"},
      {"measurement": "fold change (FC)", "setting": "[29]", "value": 8},
      {"measurement": "MIC", "setting": "[6]", "value": 75, "unit": "µg/mL"},
      {"measurement": "fold change (FC)", "setting": "[30]", "value": 16},
      {"measurement": "Activity", "setting": "[31]", "value": "Active"},
      {"measurement": "MIC", "setting": "[9]", "value": 2.34, "unit": "µg/mL"},
      {"measurement": "fold change (FC)", "setting": "[32]", "value": 16},
      {"measurement": "Activity", "setting": "[10]", "value": "Active"},
      {"measurement": "Activity", "setting": "[12]", "value": "Active"},
      {"measurement": "Activity", "setting": "[15]", "value": "Active"},
      {"measurement": "mortality at 24 h", "setting": "[16]", "value": 0, "unit": "%"}
    ]}
  ]
}
